Assay results from PubChem BioAssay (NCI).
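Method: 48-hour compound exposure of cells in 96-well plates, five concentrations, linear interpolation of endpoints. GI50 marks 50% less growth. TGI is the concentration that stops growth completely.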

Tests used:
Assay in all cases: inhibition of tumour cell growth, NCI panel, 48 h
CCRF-CEM leukemia = system: CCRF-CEM leukemia
MDA-MB-231 breast = system: MDA-MB-231 breast
NCI-H460 lung = system: NCI-H460 lung
NCI-H226 lung = system: NCI-H226 lung
SW-620 colon = system: SW-620 colon
RPMI-8226 leukemia = system: RPMI-8226 leukemia
SR leukemia = system: SR leukemia
U251 CNS = system: U251 CNS
A549 NSCLC = system: A549 NSCLC
A498 renal = system: A498 renal

Row | SMILES | TGI (CCRF-CEM leukemia) [µM] | TGI (MDA-MB-231 breast) [µM] | TGI (NCI-H460 lung) [µM] | TGI (NCI-H226 lung) [µM] | TGI (SW-620 colon) [µM] | TGI (RPMI-8226 leukemia) [µM] | TGI (SR leukemia) [µM] | TGI (U251 CNS) [µM] | TGI (A549 NSCLC) [µM] | TGI (A498 renal) [µM] | GI50 (CCRF-CEM leukemia) [µM] | GI50 (MDA-MB-231 breast) [µM] | GI50 (NCI-H460 lung) [µM] | GI50 (NCI-H226 lung) [µM] | GI50 (SW-620 colon) [µM] | GI50 (RPMI-8226 leukemia) [µM] | GI50 (SR leukemia) [µM] | GI50 (U251 CNS) [µM] | GI50 (A549 NSCLC) [µM] | GI50 (A498 renal) [µM]
1 | O=c1[nH]nc(-c2ccccc2)n1/N=C/c1cccnc1 | > 100 | > 100 | > 100 | > 100 | > 100 | > 100 | > 100 | > 100 | > 100 | > 100 | – | – | – | – | – | – | – | – | – | –
2 | OC(CCNCc1ccccc1)c1ccc2ccccc2c1 (stereo not given) | > 100 | 35.3 | 35.1 | 46.7 | 43.1 | 73.3 | 98.3 | 30.6 | 36.3 | 40 | – | – | – | – | – | – | – | – | – | –
3 | CCOC(=O)c1c(N2CCCC2)ncn(Cc2ccccc2)c1=S | > 100 | > 100 | > 100 | > 100 | > 100 | > 100 | > 100 | > 100 | > 100 | > 100 | – | – | – | – | – | – | – | – | – | –
4 | Cc1c2c(n(CCc3ccc(Cl)cc3)c1C)NC(c1ccccc1)C(C#N)S2(=O)=O (stereo not given) | 5.07 | > 59.3 | > 100 | > 100 | > 100 | 57.8 | 38.2 | > 100 | > 100 | > 100 | – | – | – | – | – | – | – | – | – | –
5 | CCOP(=O)(OCC)C1CC(n2cc(C)c(=O)[nH]c2=O)OC1CO (stereo not given) | > 100 | > 100 | > 100 | > 100 | > 100 | > 100 | > 100 | > 100 | > 100 | > 100 | – | – | – | – | – | – | – | – | – | –
6 | COc1ccc2nc3cc([N+](=O)[O-])ccc3c(Nc3ccc(S(=O)(=O)NC(C)=O)cc3)c2c1 | > 100 | > 100 | > 100 | > 100 | > 100 | > 100 | 75.8 | > 100 | > 100 | > 100 | – | – | – | – | – | – | – | – | – | –
7 | O=C(Nc1nc2ccccc2s1)c1cc([N+](=O)[O-])ccc1Cl | 8.77 | > 100 | > 59.4 | > 100 | > 51.4 | > 100 | > 100 | > 91.6 | > 100 | > 100 | – | – | – | – | – | – | – | – | – | –
8 | Nc1ccccc1CC(O)C(=O)O (stereo not given) | > 100 | > 100 | > 100 | > 100 | > 100 | > 100 | > 100 | > 100 | > 100 | > 100 | – | – | – | – | – | – | – | – | – | –
9 | CC1=NN(c2nc(N)nc(/C(C#N)=C/c3cccn3-c3cc(Cl)cc(Cl)c3)n2)C(C)(C)C1 | > 100 | > 100 | > 100 | > 100 | > 100 | > 100 | > 100 | 28.3 | > 100 | > 100 | – | – | – | – | – | – | – | – | – | –
10 | CC1(O)CC(=O)c2c(cc3ccc(-c4c5c(c(O)c6c(O)cccc46)C(=O)CC(C)(O)C5)c(O)c3c2O)C1 (stereo not given) | 10.5 | 3.93 | 5.64 | 2.16 | 18.9 | 2.8 | 7.06 | 1.74 | 11.1 | 3.53 | – | – | – | – | – | – | – | – | – | –
11 | Cc1cc(N2CCCC2)nc(N(CCNc2ccnc3cc(Cl)ccc23)Cc2ccco2)n1 | > 100 | 23.7 | > 100 | > 100 | 81.8 | 4.5 | 4.67 | 21.4 | > 100 | 7.79 | 2.85 | 3.14 | 2.99 | 3.2 | 2.6 | 2.02 | 1.8 | 3.15 | 5.9 | 1.92
12 | CCCCCCCCCCCCCCCCCCNc1ccn(C2OC(COP(=O)(O)OCC3OC(n4cc(F)c(NCCCCCCCCCCCCCCCCCC)nc4=O)CC3O)C(O)C2O)c(=O)n1 (stereo not given) | > 100 | > 100 | > 100 | > 100 | > 100 | > 100 | > 100 | > 100 | > 100 | > 100 | – | – | – | – | – | – | – | – | – | –
13 | CC(C)(Oc1ccc(Cl)cc1)C(=O)N(C(=O)N1CCC(c2ccccc2)CC1)c1ccccc1 | > 100 | > 100 | > 100 | > 100 | > 100 | > 46.3 | > 100 | > 100 | > 100 | > 100 | – | – | – | – | – | – | – | – | – | –
14 | c1cn(C23C4C5C6C4C2C6C53)cn1 (stereo not given) | > 100 | > 100 | > 100 | > 100 | > 100 | > 100 | > 100 | > 100 | > 100 | > 100 | – | – | – | – | – | – | – | – | – | –
15 | COc1cc(C2c3cc4c(cc3OC(NNC(N)=O)C2C)OCO4)cc(OC)c1O (stereo not given) | > 100 | > 56.9 | > 100 | 27.1 | > 100 | > 31.8 | > 100 | > 53.1 | > 80.9 | 35.7 | – | – | – | – | – | – | – | – | – | –
16 | COc1ccc(NC(C)=O)cc1N1C(=O)/C(=C\c2cc(OC)c(OC)c(OC)c2)SC1c1ccccc1 (stereo not given) | > 100 | > 100 | > 100 | > 100 | > 100 | > 100 | > 100 | > 100 | > 100 | > 100 | – | – | – | – | – | – | – | – | – | –
17 | C=C(C)C(O)C(O)c1c(OC)ccc2ccc(=O)oc12 (stereo not given) | > 100 | > 100 | > 100 | > 100 | > 100 | > 100 | > 100 | > 100 | > 100 | > 100 | – | – | – | – | – | – | – | – | – | –
18 | COc1ccc(-n2c(=O)n(C)c(=O)n2-c2ccc(OC)cc2)cc1 | > 100 | > 100 | > 100 | > 100 | > 100 | > 100 | > 100 | > 100 | > 100 | > 100 | – | – | – | – | – | – | – | – | – | –
19 | COC1OC2COC1(OC)C1OC(C)(C)OC21 (stereo not given) | > 100 | > 100 | > 100 | > 100 | > 100 | > 100 | > 100 | > 100 | > 100 | > 100 | – | – | – | – | – | – | – | – | – | –
20 | O=C(Nc1ccccc1)N(CCCCN(Cc1ccccc1)C(=O)Nc1ccccc1)Cc1ccccc1 | > 100 | > 100 | > 100 | > 100 | > 100 | > 100 | > 100 | > 100 | > 100 | > 100 | – | – | – | – | – | – | – | – | – | –
21 | CCOC(=O)c1cc2c(C(=O)c3ccc([N+](=O)[O-])cc3)c(C(C)=O)ccc2[nH]1 | > 100 | 53.4 | > 100 | > 100 | > 100 | > 100 | > 100 | 32.3 | > 100 | > 100 | – | – | – | – | – | – | – | – | – | –
22 | COC(=O)c1c(O)ccc2c1c1c(n2Cc2cccc(C)c2)C(=O)c2ccccc2C1=O | 22.5 | 35.3 | 16.7 | 38.8 | 32.4 | 16.9 | 21 | 24.4 | 20.3 | 33.9 | – | – | – | – | – | – | – | – | – | –
23 | CCCC(=O)NC(Nc1ccc(S(=O)(=O)Nc2nc(C)cc(C)n2)cc1)(C(F)(F)F)C(F)(F)F | > 100 | > 100 | > 100 | > 100 | > 100 | > 100 | > 100 | > 100 | > 100 | > 100 | – | – | – | – | – | – | – | – | – | –
24 | CCNC(=O)c1cc(/C=C/c2ccc([N+](=O)[O-])o2)nc2ccccc12 | > 100 | > 100 | 17.4 | > 100 | > 100 | > 100 | > 100 | > 100 | > 100 | 71 | – | – | – | – | – | – | – | – | – | –
25 | O=c1ccn(CC2(CO)CC(Cc3ccccc3)C2)c(=O)[nH]1 (stereo not given) | > 100 | > 100 | > 100 | > 100 | > 100 | > 100 | > 100 | > 100 | > 100 | > 100 | – | – | – | – | – | – | – | – | – | –
26 | CC(C)C(OC(=O)c1ccc(NCc2cc(O)ccc2O)cc1)C(C)C | 0.589 | 9.15 | 14.7 | 5.47 | 7.95 | 0.931 | 2.43 | 2.85 | 20.7 | 9.58 | – | – | – | – | – | – | – | – | – | –
27 | CCOC(=O)c1cc2c3c(c(C(C)=O)c(O)c2[nH]1)N(CC(C)CC)CC3 (stereo not given) | > 100 | > 100 | > 100 | > 100 | > 100 | > 100 | > 100 | > 100 | > 100 | > 100 | – | – | – | – | – | – | – | – | – | –
28 | C/C(Nc1ccc(F)cc1)=C1/CCOC1=O | > 100 | > 100 | > 100 | > 100 | > 100 | > 100 | > 100 | > 100 | > 100 | > 100 | – | – | – | – | – | – | – | – | – | –
